Data as given in patent publication US10590077B2, “TRPV4 antagonists” (GlaxoSmithKline Intellectual Property (No.2) Limited, priority 2016, dated 2020).
pIC50: −log10 of the molar value. Where two headings read alike, the source gives them in different places.

Molecular target: human TRPV4 (Homo sapiens (Human), UniProt Q9HBA0)
Assay: FLIPR assay for hTRPV4 expressed in BHK cells
Assay type: cell-based
Protocol: FLIPR Assay for hTRPV4 Expressed in BHK Cells:
TRPV4 channel activation results in an influx of divalent and monovalent cations including calcium. The resulting changes in intracellular calcium were monitored using a calcium specific fluorescent dye Fluo-4 (MDS Analytical Technologies). BHK/AC9 cells transduced with BacMam virus expressing the human TRPV4 gene at a MOI of 78 were plated in a 384 well poly-D lysine coated plate (15,000 cells/well in 50 μL culture medium containing DMEM/F12 with 15 mM HEPES, 10% FBS, 1% Penicillin-Streptomycin and 1% L-glutamine). Cells were incubated for 24 hours at 37° C. and 5% CO2. Culture medium was then aspirated using a Tecan plate-washer and replaced with 20 μL/well of dye loading buffer: HBSS, 500 μM Brilliant Black (MDS Analytical Technologies), and 2 μM Fluo-4 AM. Dye loaded plates were then incubated in the dark at room temperature for 1˜1.5 hours.

[1] = inhibition of Agonist Compound-induced calcium signal (agonist at EC80), BHK/AC9 cells expressing human TRPV4, read-out: IC50
[2] = average in at least one set of experimental runs, inhibition of Agonist Compound-induced calcium signal, read-out: average IC50

Sequence of human TRPV4 (Q9HBA0 whole entry): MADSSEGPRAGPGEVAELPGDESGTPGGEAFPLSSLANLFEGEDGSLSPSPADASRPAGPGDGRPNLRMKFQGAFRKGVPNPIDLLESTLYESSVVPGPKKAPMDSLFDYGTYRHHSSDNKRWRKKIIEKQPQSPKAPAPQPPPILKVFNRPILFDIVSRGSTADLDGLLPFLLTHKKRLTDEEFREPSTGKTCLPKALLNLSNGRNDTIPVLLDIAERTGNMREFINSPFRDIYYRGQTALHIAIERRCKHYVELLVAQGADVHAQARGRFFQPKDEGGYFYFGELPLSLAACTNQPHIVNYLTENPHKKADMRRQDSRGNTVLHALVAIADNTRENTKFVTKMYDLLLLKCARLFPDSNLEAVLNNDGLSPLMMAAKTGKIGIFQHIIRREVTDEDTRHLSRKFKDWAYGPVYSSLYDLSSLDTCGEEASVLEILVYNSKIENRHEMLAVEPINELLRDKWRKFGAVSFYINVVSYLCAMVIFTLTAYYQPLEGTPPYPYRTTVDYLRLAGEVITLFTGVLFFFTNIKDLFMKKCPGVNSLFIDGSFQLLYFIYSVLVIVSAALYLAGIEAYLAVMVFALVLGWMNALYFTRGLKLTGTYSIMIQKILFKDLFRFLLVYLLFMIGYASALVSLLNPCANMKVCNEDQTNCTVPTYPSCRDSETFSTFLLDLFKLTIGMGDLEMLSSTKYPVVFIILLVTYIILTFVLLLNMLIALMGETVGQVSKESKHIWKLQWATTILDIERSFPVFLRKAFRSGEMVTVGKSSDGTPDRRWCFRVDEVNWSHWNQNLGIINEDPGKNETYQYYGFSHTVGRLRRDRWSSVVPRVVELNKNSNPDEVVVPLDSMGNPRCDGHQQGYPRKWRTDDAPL

| SMILES | pIC50 [1] | pIC50 [2] |
| --- | --- | --- |
| N#Cc1ccc(C[C@H]2CN(S(=O)(=O)c3ccc(C(F)(F)F)cc3Cl)C[C@@]2(O)CO)cc1 [Example 2, 4-(((3S,4R)-1-((2-chloro-4-(trifluoromethyl)phenyl)sulfonyl)-4-hydroxy-4-(hydroxymethyl)pyrrolidin-3-yl)methyl)benzonitrile] | 7.00 to 8.00 | – |
| N#Cc1ccc(C[C@H]2CN(S(=O)(=O)c3ccc(Cl)cn3)C[C@@]2(O)CN)cc1F [Example 7, 4-(((3S,4S)-4-(aminomethyl)-1-((5-chloropyridin-2-yl)sulfonyl)-4-hydroxypyrrolidin-3-yl)methyl)-2-fluorobenzonitrile] | 8.00 to 10.00 | 8.00 |
| N#Cc1ccc(C[C@H]2CN(S(=O)(=O)c3ccc(Cl)cc3Cl)C[C@@]2(O)CO)cc1F [Example 1, 4-(((3S,4R)-1-((2,4-dichlorophenyl)sulfonyl)-4-hydroxy-4-(hydroxymethyl)pyrrolidin-3-yl)methyl)-2-fluorobenzonitrile] | 8.00 to 10.00 | 8.10 |
| N#Cc1ccc(C[C@H]2CN(S(=O)(=O)c3ccc(Cl)cn3)C[C@@]2(O)CO)c(OCC(F)(F)F)c1 [Example 3, 4-(((3S,4R)-1-((5-chloropyridin-2-yl)sulfonyl)-4-hydroxy-4-(hydroxymethyl)pyrrolidin-3-yl)methyl)-3-(2,2,2-trifluoroethoxy)benzonitrile] | 7.00 to 8.00 | – |
| N#Cc1ccc(C[C@H]2CN(S(=O)(=O)c3ccc(Cl)cc3Cl)C[C@]2(O)CO)cc1F [Example 4, 4-(((3S,4S)-1-((2,4-dichlorophenyl)sulfonyl)-4-hydroxy-4-(hydroxymethyl)pyrrolidin-3-yl)methyl)-2-fluorobenzonitrile] | 7.00 to 8.00 | – |
| N#Cc1ccc(S(=O)(=O)N2C[C@H](Cc3ccc(C#N)c(F)c3)[C@](O)(CO)C2)c(Cl)c1 [Example 6, 4-(((3S,4R)-1-((2-chloro-4-cyanophenyl)sulfonyl)-4-hydroxy-4-(hydroxymethyl)pyrrolidin-3-yl)methyl)-2-fluorobenzonitrile] | 8.00 to 10.00 | – |
| N#Cc1ccc(C[C@H]2CN(S(=O)(=O)c3ccc(C(F)(F)F)cc3C#N)C[C@@]2(O)CO)cc1F [Example 5, 4-(((3S,4R)-1-((2-cyano-4-(trifluoromethyl)phenyl)sulfonyl)-4-hydroxy-4-(hydroxymethyl)pyrrolidin-3-yl)methyl)-2-fluorobenzonitrile] | 8.00 to 10.00 | – |
